Columns and labels:
Type in all cases: cell-based, murine
MC38 cells = assay: 7-AAD and Annexin V cell death, flow cytometry; details: lethal dose of β-lap (4 μM)
Experimental: (§1) (FIG. 1A) NQO1 positive tumor cell lines MC38, TC-1 and Ag104Ld and NQO1 negative cell lines Panc02 and B16 grown in 48-well plates were treated with β-lap (0-8 μM) for a 3 hr followed by washing and replacing medium. Cell viability was determined by Sulforhodamine B (SRB) Assay 4 days later. […] (FIG. 1C) MC38 cells with CRISPR-based NQO1 Knockout (MC38 NQO1KO #5) planted in 96-well plates were exposed to β-lap for 3 hr and cell survival was assessed 48 hr later. […] (FIG. 1E) MC38 cells were exposed to a lethal dose of β-lap (4 μM) for indicated times, then stained with 7-AAD and Annexin V followed by flow cytometry analysis. […] (FIG. 1H) MC38 and B16 NQO1 #1 cells were exposed to β-lap for a 3 hr. Catalase (1000 U/ml) was added and cell survival was assessed 48 hr later. (FIG. 1I) C57BL/6 mice (n=5/group) were transplanted with MC38 cells and treated with β-lap (0.03 mg, 0.1 mg or 0.3 mg, intratumorally; or 25 mg/kg, i.v.) every other day for four times. […] Tumor growth was monitored twice a week.
(§2) (FIG. 21A) Viability of murine cell lines following IB-DNQ treatment for 4 h. […] (FIGS. 21D-E) DNA double strand break was assessed via comet assay (FIG. 21D) and γH2AX foci/nuclei immunofluorescence (FIG. 21E). (FIG. 21F) MC38 cell death after a 4 h exposure to IB-DNQ was determined by 7AAD and Annexin V staining using flow cytometry analysis.

[1] = test system: B16 cells stably harboring a pCMV-NQO1 expression vector; assay: Cell survival of NQO1 overexpressing B16 cells; details: 3 hr exposure, survival 48 hr later
Experimental: as §1, with “later.” for “later. (FIG. 1I) C57BL/6 mice (n=5/group) were transplanted with MC38 cells and treated with β-lap (0.03 mg, 0.1 mg or 0.3 mg, intratumorally; or 25 mg/kg, i.v.) every other day for four times.”
FIGS. 17A-I (related to FIGS. 1A-J). […] (FIG. 17A) NQO1 expression in different murine cancer cell lines was determined by western blotting assay. […] Cell viability was determined by Sulforhodamine B (SRB) Assay 48 hr later. […] Cell viability was determined by SRB Assay 48 hr later. […] Catalase (1000 U/ml) was added and cell viability was assessed 48 hr later. […] Tumor growth was monitored twice a week. […] Data are shown as mean±SEM. **P<0.01, ***P<0.001, ****P<0.0001 determined by unpaired student t-test (FIG. 17G) or two-way ANOVA (FIG. 17H and FIG. 17I). […]

ROS = assay: Cellular ROS / H2O2 detection; details: for ROS level: 3 hr, DCFDA
Experimental: (FIG. 1A) NQO1 positive tumor cell lines MC38, TC-1 and Ag104Ld and NQO1 negative cell lines Panc02 and B16 grown in 48-well plates were treated with β-lap (0-8 μM) for a 3 hr followed by washing and replacing medium. Cell viability was determined by Sulforhodamine B (SRB) Assay 4 days later. […] (FIG. 1C) MC38 cells with CRISPR-based NQO1 Knockout (MC38 NQO1KO #5) planted in 96-well plates were exposed to β-lap for 3 hr and cell survival was assessed 48 hr later. […] (FIG. 1E) MC38 cells were exposed to a lethal dose of β-lap (4 μM) for indicated times, then stained with 7-AAD and Annexin V followed by flow cytometry analysis. […] (FIG. 1H) MC38 and B16 NQO1 #1 cells were exposed to β-lap for a 3 hr. Catalase (1000 U/ml) was added and cell survival was assessed 48 hr later. (FIG. 1I) C57BL/6 mice (n=5/group) were transplanted with MC38 cells and treated with β-lap (0.03 mg, 0.1 mg or 0.3 mg, intratumorally; or 25 mg/kg, i.v.) every other day for four times. (FIG. 1J) C57BL/6 mice were transplanted with MC38 cells (NQO1 WT or KO, n=5/group) and treated with β-lap (0.3 mg, i.t.) every other day for four times. Tumor growth was monitored twice a week.
(FIG. 8A) NQO1 expression in multiple murine tumor lines was immunoblotted as indicated. (FIG. 8B) NQO1^+ cells (MC38, TC-1, and Ag104Ld) and NQO1^− cells (B16 and Pan02) were treated for 3 h with β-lap±DIC (50 μM). Drugs were removed and survival assessed 5 days later. (FIG. 8C) Relative H2O2 levels were assessed in various cells treated with β-lap for 3 h at the indicated doses using CellRox-Glo. Values were normalized to DMSO-treated control cells. (FIG. 8D) TC-1 cells exposure to β-lap for 12 h, later PARP-1 and Caspase-3 levels were analyzed by western blotting assay. […]
as §2

CC1(C)CCC2=C(O1)c1ccccc1C(=O)C2=O [β-lap, β-lapachone]
mode of cell death (MC38 cells): rapid cell swelling, membrane rupture and Annexin V+/7AAD+ cell death without caspase activation
response to β-lap (cell survival) [1]: sensitivity to β-lap
H2O2 level (ROS; NQO1+ cells but not NQO1− cells, 3 h exposure, CellRox-Glo): High level of H2O2
ROS level (ROS; NQO1 null lines): much less
ROS level (ROS; NQO1 positive murine tumor line): high level of ROS
